Reference: US8445502B2, “Pharmaceutical formulations comprising salts of a protein kinase inhibitor and methods of using same” (Astex Pharmaceuticals, Inc., priority 2007, dated 2013)
Read-outs that look alike come from different tables or passages of the source.

How the values were obtained:
[1] = pKa by mixed-solvent (methanol-water) method; assay type: physicochemical
Experimental: The apparent pKa in aqueous solution was extrapolated from the determined pKa values (the apparent ionization constants in methanol-water solvent) plotted versus the percent methanol used. The apparent pKa of MP470 was determined to be 6.7.

[2] = system: HT-29 colorectal cancer cells; assay type: in vivo
Experimental: MP470 and MP470 HCl were tested against different tumor types in athymic nude mice as summarized below (Table 8). Various formulations and routes were evaluated. HT-29 colorectal cancer cells and SB-CL2 melanoma cells were implanted subcutaneously, while A549 lung cancer cells, MiaPaCa-2 pancreatic cancer cells, TT medullary thyroid cancer cells, and OVCAR-3 ovarian cancer cells were implanted […] in the hind flank of mice. All animals were allowed to develop medium-sized (80-125 mg) tumors, before initiation of dosing. Tumor volume and mouse bodyweight were followed over the course of the study.
HT-29 Colorectal Model—Eighteen athymic nude mice were injected subcutaneously with HT-29 colorectal cancer cells. After tumor formation, animals received either 10 or 20 mg/kg MP470 by intraperitoneal (IP) injection using a qd5×2 wk schedule. On Day 5 of treatment, tumor growth rates in vehicle control animals were 19.5 mm3/d, while MP470-treated animals had tumor growth rates of 1.4 mm3/d (10 mg/kg) and −5.0 mm3/d (20 mg/kg). Tumor growth continued to decline throughout the 14 days of study. On Day 14, the tumor growth rates were 16.4 mm3/d (vehicle) compared to 4.3 mm3/d (10 mg/kg) and 5.5 mm3/d (20 mg/kg) in treated animals.

[3] = Solubility of MP470.HCl in common solvents at room temperature; assay type: physicochemical
PDGFRα (V561D) (h) = PDGFRα (V561D) (h) (Homo sapiens, UniProt P16234, V561D); assay: Mutant kinase IC50 screen; assay type: biochemical
Sequence of PDGFRα (V561D) (h) (P16234 24-1089 V561D): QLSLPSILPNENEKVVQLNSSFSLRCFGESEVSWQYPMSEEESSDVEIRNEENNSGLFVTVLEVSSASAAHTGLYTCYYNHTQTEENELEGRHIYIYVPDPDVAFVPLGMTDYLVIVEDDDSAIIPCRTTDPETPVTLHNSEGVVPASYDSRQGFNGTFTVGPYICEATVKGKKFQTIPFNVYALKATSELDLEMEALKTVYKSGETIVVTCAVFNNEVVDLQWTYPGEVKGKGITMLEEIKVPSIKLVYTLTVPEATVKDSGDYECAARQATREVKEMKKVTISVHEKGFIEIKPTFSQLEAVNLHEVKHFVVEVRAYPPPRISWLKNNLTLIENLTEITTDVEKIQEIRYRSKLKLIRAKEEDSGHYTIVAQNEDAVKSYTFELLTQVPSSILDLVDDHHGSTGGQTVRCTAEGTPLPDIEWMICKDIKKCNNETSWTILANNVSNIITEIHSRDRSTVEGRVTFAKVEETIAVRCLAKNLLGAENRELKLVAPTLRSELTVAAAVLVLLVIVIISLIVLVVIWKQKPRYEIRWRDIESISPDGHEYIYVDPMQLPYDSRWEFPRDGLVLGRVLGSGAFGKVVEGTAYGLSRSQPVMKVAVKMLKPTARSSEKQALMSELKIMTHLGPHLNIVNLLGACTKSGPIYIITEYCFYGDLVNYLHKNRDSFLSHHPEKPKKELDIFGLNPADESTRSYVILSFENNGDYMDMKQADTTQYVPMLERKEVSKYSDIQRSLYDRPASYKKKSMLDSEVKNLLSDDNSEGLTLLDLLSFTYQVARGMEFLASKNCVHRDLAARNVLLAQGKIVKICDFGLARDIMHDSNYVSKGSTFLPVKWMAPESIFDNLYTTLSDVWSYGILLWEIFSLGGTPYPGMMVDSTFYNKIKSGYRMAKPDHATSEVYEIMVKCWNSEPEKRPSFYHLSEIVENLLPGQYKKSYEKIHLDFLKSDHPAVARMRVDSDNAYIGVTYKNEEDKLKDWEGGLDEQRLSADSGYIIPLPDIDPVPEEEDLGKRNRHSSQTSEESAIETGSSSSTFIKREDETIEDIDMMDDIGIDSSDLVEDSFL
Experimental: (§1) IC50 values for MP470.HCl were determined for four mutant c-Kit kinases, one mutant Flt3 kinase, and two mutant PDGFRα kinases.

cKit (D816H) (h) = cKit (D816H) (h) (Homo sapiens, UniProt P10721, D816H); assay: Mutant kinase IC50 screen; assay type: biochemical
Sequence of cKit (D816H) (h) (P10721 26-976 D816H): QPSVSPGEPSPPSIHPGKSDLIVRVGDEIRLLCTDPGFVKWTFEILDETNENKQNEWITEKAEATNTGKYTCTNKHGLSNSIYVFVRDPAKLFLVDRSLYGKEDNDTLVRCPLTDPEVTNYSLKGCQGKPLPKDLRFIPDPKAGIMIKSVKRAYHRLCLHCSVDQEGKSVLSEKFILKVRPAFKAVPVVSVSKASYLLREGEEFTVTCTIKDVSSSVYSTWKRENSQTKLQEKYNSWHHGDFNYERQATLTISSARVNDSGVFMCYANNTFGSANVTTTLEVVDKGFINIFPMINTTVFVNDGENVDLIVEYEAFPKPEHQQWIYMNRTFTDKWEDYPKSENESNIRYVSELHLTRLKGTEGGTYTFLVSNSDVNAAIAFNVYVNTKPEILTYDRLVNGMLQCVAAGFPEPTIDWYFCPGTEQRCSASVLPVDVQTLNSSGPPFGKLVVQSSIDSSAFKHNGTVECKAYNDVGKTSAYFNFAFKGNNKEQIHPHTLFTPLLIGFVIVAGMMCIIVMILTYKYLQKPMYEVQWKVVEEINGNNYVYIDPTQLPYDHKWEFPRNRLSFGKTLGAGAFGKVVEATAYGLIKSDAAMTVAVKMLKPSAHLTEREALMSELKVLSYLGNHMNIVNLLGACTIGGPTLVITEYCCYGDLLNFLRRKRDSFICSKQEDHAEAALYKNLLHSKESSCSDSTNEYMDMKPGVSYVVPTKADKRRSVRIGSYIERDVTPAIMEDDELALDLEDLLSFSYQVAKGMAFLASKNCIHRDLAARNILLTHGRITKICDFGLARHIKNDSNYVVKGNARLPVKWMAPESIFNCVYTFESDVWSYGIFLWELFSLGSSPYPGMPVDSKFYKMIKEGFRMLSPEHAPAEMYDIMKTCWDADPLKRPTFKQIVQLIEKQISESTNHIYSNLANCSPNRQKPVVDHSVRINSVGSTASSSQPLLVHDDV
Experimental: as §1

cKit (V560G) (h) = cKit (V560G) (h) (Homo sapiens, UniProt P10721, V560G); assay: Mutant kinase IC50 screen; assay type: biochemical
Sequence of cKit (V560G) (h) (P10721 26-976 V560G): as the sequence (P10721 26-976 D816H) above, with V535G, H791D counted along it
Experimental: as §1

cKit (V654A) (h) = cKit (V654A) (h) (Homo sapiens, UniProt P10721, V654A); assay: Mutant kinase IC50 screen; assay type: biochemical
Sequence of cKit (V654A) (h) (P10721 26-976 V654A): as the sequence (P10721 26-976 D816H) above, with V629A, H791D counted along it
Experimental: as §1

[4] = 28-day chronic oral tolerability and toxicokinetics in dog; assay type: in vivo; details: for mean liver weights compared with the control group / mean liver weights relative to brain weights compared with the control group: dosing period; for mean heart weights relative to body weight compared with the control group: recovery period; for AUC / Cmax / half-life: po
Experimental: In a chronic tolerability study of MP470 hydrochloride salt in the dog, groups of six male and six female dogs received 0, 30, 100, or 300 mg/kg/day of the test article (Groups 1-4, respectively) for 28 days. MP470.HCl was administered, by capsule, as a dry powder blend with sodium lauryl sulfate. […] In males, increased incidences of emesis and soft feces/diarrhea for Groups 3-4 and discolored and mucoid feces for Groups 2-4 were observed. In females, increased incidences of emesis and mucoid feces for Group 4, increased incidences of soft feces/diarrhea for Groups 3-4, and discolored feces for Groups 2-4 were noted. These clinical abnormalities were not considered adverse. No test article-related effects on body weight or food consumption were observed during the dosing or recovery periods. No test-article related lesions were noted during ophthalmic examinations and all electrocardiograms of the test and control animals were within normal limits. No test article related effects on hematology or urinalysis parameters were observed during the dosing or recovery periods.
Test article related effects on clinical chemistry parameters during the dosing period were limited to lower mean serum aspartate aminotransferase (75%) and plasma thyroxine (50%) levels for the Group 4 males when compared with the control group. […] Test article related organ weight changes during the recovery period were limited to statistically lower mean heart weights relative to body weight for the Group 3-4 females (85 and 89%, respectively) when compared with the control group.
There was adequate systemic exposure, in general plasma concentration of the test article increased relatively rapidly after treatment, followed by a steady decline for all dose groups and both sexes. Systemic exposure to the test article, as measured by Cmax and AUC, increased with increasing dose in both sexes, but the increase was generally less than dose proportional. No significant differences in exposure to the test article were observed between male and female dogs. No accumulation of the drug was evident as measured by difference in exposure between day 0 and day 27. The time to reach maximal plasma concentration (t-max) ranged from 2-4 hours for Groups 2 and 3 and ranged from 2-8 hours for Group 4. The terminal half-lives varied widely and ranged from 7-84.7 hours for Group 2, 16-47.7 hours for Group 3 and 10.5-28 hours for Group 4. […] There was a large variability in exposure.
A NOEL could not be determined; the no-observed-adverse-effect level (NOAEL) was considered to be 300 mg/kg/day (6000 mg/m2/d) for both sexes. A STD could not be calculated in this study and is likely to be higher than 300 mg/kg/day (6000 mg/m2/d).

[5] = Group 3 females (100 mg/kg/day)
[6] = Group 4 females (300 mg/kg/day)
[7] = both sexes, beagle, dog, in vivo, 30 mg/kg/day
[8] = both sexes, beagle, dog, in vivo, 100 mg/kg/day
[9] = both sexes, beagle, dog, in vivo, 300 mg/kg/day

## S=C(NCc1ccc2c(c1)OCO2)N1CCN(c2ncnc3c2oc2ccccc23)CC1 [MP470, 4-[1]benzofuro[3,2-d]pyrimidin-4-yl-N-(1,3-benzodioxol-5-ylmethyl)piperazine-1-carbothioamide]
[1]; 30% (v/v) methanol
  pKa (apparent ionization constant): 6.81
[1]; 60% (v/v) methanol
  pKa (apparent ionization constant): 7.09
[1]; 90% (v/v) methanol
  pKa (apparent ionization constant): 7.10
[1]; aqueous solution, extrapolated from pKa values in methanol-water
  apparent pKa: 6.7
[2]; Day 5, 10 mg/kg IP qd5×2 wk (vehicle 19.5)
  tumor growth rate: 1.4 mm3/d
[2]; Day 5, 20 mg/kg IP qd5×2 wk (vehicle 19.5)
  tumor growth rate: −5.0 mm3/d
[2]; Day 14, 10 mg/kg IP (vehicle 16.4)
  tumor growth rate: 4.3 mm3/d
[2]; Day 14, 20 mg/kg IP (vehicle 16.4)
  tumor growth rate: 5.5 mm3/d
[2]; HT-29 colon, IP 10, 20 mg/kg, (qd × 5) × 2 w, TV-13
  Outcome: tumor growth: tumor growth was slowed but not reversed

## Cl.S=C(NCc1ccc2c(c1)OCO2)N1CCN(c2ncnc3c2oc2ccccc23)CC1 [MP470.HCl, 4-[1]benzofuro[3,2-d]pyrimidin-4-yl-N-(1,3-benzodioxol-5-ylmethyl)piperazine-1-carbothioamide hydrochloride]
[3]; Benzyl alcohol
  Solubility: 48 mg/mL
[3]; DMF
  Solubility: 9 mg/mL
[3]; DMSO
  Solubility: 17 mg/mL
[3]; Ethanol
  Solubility: 0.4 mg/mL
[3]; Glycerol
  Solubility: 4 mg/mL
[3]; Methanol
  Solubility: 3 mg/mL
[3]; Propylene glycol
  Solubility: 4 mg/mL
[3]; Water
  Solubility (mg/mL): < detectable limit by HPLC
PDGFRα (V561D) (h)
  IC50: 0.04 µM
cKit (D816H) (h)
  IC50: 0.01 µM
cKit (V560G) (h)
  IC50: 0.034 µM
cKit (V654A) (h)
  IC50: 0.127 µM
[4]; Group 2 females (30 mg/kg/day)
  mean liver weights compared with the control group: 124%
  mean liver weights relative to brain weights compared with the control group: 117%
[4]; [5]
  mean liver weights compared with the control group: 123%
  mean liver weights relative to brain weights compared with the control group: 121%
  mean heart weights relative to body weight compared with the control group: 85%
[4]; [6]
  mean liver weights compared with the control group: 119%
  mean liver weights relative to brain weights compared with the control group: 120%
  mean heart weights relative to body weight compared with the control group: 89%
[4]; beagle, dog, in vivo, dogs, both sexes, 28 days, read-out: no-observed-adverse-effect level (NOAEL)
  NOAEL at 28 days: 300 mg/kg/day
[4]; [7]
  AUC: 0.0979 to 1.13 µg·h/mL
  Cmax: 0.0425 to 0.154 µg/mL
  half-life: 7 to 84.7 h
[4]; [8]
  AUC: 0.257 to 2.53 µg·h/mL
  Cmax: 0.0783 to 0.231 µg/mL
  half-life: 16 to 47.7 h
[4]; [9]
  AUC: 0.559 to 4.89 µg·h/mL
  Cmax: 0.192 to 0.329 µg/mL
  half-life: 10.5 to 28 h
[4]; both, beagle, dog, in vivo, 28 days
  STD (severely toxic dose): > 6000 mg/m2/d
[4]; dogs, 30, 100 or 300 mg/kg/day by capsule, 28 days
  mortalities: no mortalities
[4]; dogs, Group 4 (300 mg/kg/day)
  time to reach maximal plasma concentration (t-max): 2 to 8 h
[4]; dogs, Groups 2 and 3 (30 and 100 mg/kg/day)
  time to reach maximal plasma concentration (t-max): 2 to 4 h
[4]; dogs, both sexes, 28 days
  no-observed-adverse-effect level (NOAEL): 6000 mg/m2/d
